The record followed here is patent US20100168179A1, “6-ALKENYL-, 6-ALKINYL- AND 6-EPOXY-EPOTHILONE DERIVATIVES, PROCESS FOR THEIR PRODUCTION, AND THEIR USE IN PHARMACEUTICAL PREPARATIONS” (priority 1999, published 2010).

As a reminder, the IC50 is the midpoint of a concentration-inhibition curve.

Where only a bound is given, the exact number is not on record here.

One assay has as its system NCl/ADR. As to the kind of experiment: growth inhibition of multi-drug-resistant NCl/ADR carcinoma cell line, crystal-violet assay. It is filed as cell-based, human. To be noted: for IC50: crystal-violet assay, multi-drug-resistant line; for Selectivity = IC50-(NCl/ADR): IC50 (MCF-7): Table 1, ratio NCl/ADR to MCF-7. The source says: (§1) In Vitro Activity of Epothilone Derivatives on Human Tumor Cell Lines
(§2) a) IC50 values [nM] for the growth inhibition of human MCF-7-breast and multi-drug-resistant NCl/ADR-carcinoma cell lines of epothilone derivatives with 13Z-unsaturated in the crystal-violet assay in comparison to Taxol.
(§3) b) IC50 values [nM] for the growth inhibition of human MCF-7-breast- and multi-drug-resistant NCl/ADR carcinoma cell lines of epothilone derivative with 13,14-α-epoxide, which was formed from the 13-Z-configured double bond in the crystal-violet assay in comparison to Taxol.
(§4) c) IC50 values [nM] for the growth inhibition of human MCF-7-breast- and multi-drug-resistant NCl/ADR-carcinoma cell lines of epothilone derivatives with 13,14-epoxide, which was formed from the 13-E-configured double bond, in a crystal-violet assay in comparison to Taxol.

The test system of another assay is MCF-7. As to the kind of experiment: growth inhibition of human MCF-7 breast carcinoma cell line, crystal-violet assay. It is filed as cell-based.
Description: as §1, §2, §3, §4

[1] abbreviates: Table 3, 13,14-epoxide formed from the 13-E-configured double bond.
Where [2] appears, read: Table 3, ratio NCl/ADR to MCF-7.
Where [3] appears, read: Table 1, epothilone derivatives with 13Z-unsaturated.
The mark [4] stands for this setting: Table 2, 13,14-α-epoxide formed from the 13-Z-configured double bond.
Setting [5] is: Table 2, ratio NCl/ADR to MCF-7.

On to `C#CCC[C@H]1C(=O)C(C)(C)[C@@H](O)CC(=O)O[C@H](/C(C)=C/c2ccccn2)C[C@@H]2OC2(C)CCC[C@H](C)[C@@H]1O` (single isomer, unassigned) [Example 6A or B], for which the IC50 in the assay on NCl/ADR (setting [1]) is 68 nM; in the assay on MCF-7 (setting [1]), 4.3 nM. Further, the “Selectivity = IC50-(NCl/ADR): IC50-(MCF-7)” value with NCl/ADR (setting [2]) is on record as 15.8.

For the compound `C=CC[C@H]1C(=O)C(C)(C)[C@@H](O)CC(=O)O[C@H](/C(C)=C/c2csc(C)n2)CC2O[C@@]2(C)CCC[C@H](C)[C@@H]1O` (single isomer, unassigned) [Example 12B or A], the IC50 with NCl/ADR (setting [1]) came out at 53 nM; in the assay on MCF-7 (setting [1]) it was 4.8 nM. For the same compound, in the assay on NCl/ADR (setting [2]), the “Selectivity = IC50-(NCl/ADR): IC50-(MCF-7)” value amounted to 11.0.

As for `C#CCC[C@H]1C(=O)C(C)(C)[C@@H](O)CC(=O)O[C@H](/C(C)=C/c2ccccn2)C/C=C(/C)CCC[C@H](C)[C@@H]1O` [Example 1, (4S,7R,8S,9S,13Z,16S(E))-4,8-Dihydroxy-16-(1-methyl-2-(2-pyridyl)ethenyl)-1-oxa-5,5,9,13-tetramethyl-7-(but-3-in-1-yl)-cyclohexadec-13-ene-2,6-dione], the 50% inhibitory concentration (IC50) with NCl/ADR (setting [3]) is 75 nM; with MCF-7 (setting [3]), 30 nM. Besides, in the assay on NCl/ADR, the “Selectivity = IC50-(NCl/ADR): IC50 (MCF-7)” value is recorded as 2.5.

On to `C=CCC[C@H]1C(=O)C(C)(C)[C@@H](O)CC(=O)O[C@H](/C(C)=C/c2ccccn2)C/C=C(/C)CCC[C@H](C)[C@@H]1O` [Example 2, (4S,7R,8S,9S,13Z,16S(E))-4,8-Dihydroxy-16-(1-methyl-2-(2-pyridyl)ethenyl)-1-oxa-5,5,9,13-tetramethyl-7-(but-3-en-1-yl)-cyclohexadec-13-ene-2,6-dione], for which the 50% inhibitory concentration (IC50) in the assay with NCl/ADR (setting [3]) is 70 nM; in the assay with MCF-7 (setting [3]), 25 nM. Further, the “Selectivity = IC50-(NCl/ADR): IC50 (MCF-7)” value in the assay on NCl/ADR amounted to 2.8.

Consider `C#CCC[C@H]1C(=O)C(C)(C)[C@@H](O)CC(=O)O[C@H](/C(C)=C/c2ccccn2)C[C@@H]2O[C@]2(C)CCC[C@H](C)[C@@H]1O` [Example 4A, (1S,3S(E),7S,10R,11S,12S,16R)-7,11-Dihydroxy-10-(but-3-in-1-yl)-3-(1-methyl-2-(2-pyridyl)ethenyl)-8,8,12,16-tetramethyl-4,17-dioxabicyclo[14.1.0]heptadecane-5,9-dione], for which the results for the half-inhibitory concentration (IC50) with NCl/ADR (setting [4]) and in the assay with MCF-7 (setting [4]) were 9.1 nM and 1.3 nM, respectively. For the same compound, the “Selectivity = IC50-(NCl/ADR): IC50-(MCF-7)” value in the assay with NCl/ADR (setting [5]) is 7.0.

For the compound `C=CCC[C@H]1C(=O)C(C)(C)[C@@H](O)CC(=O)O[C@H](/C(C)=C/c2ccccn2)C[C@@H]2O[C@]2(C)CCC[C@H](C)[C@@H]1O` [Example 5A, (1S,3S(E),7S,10R,11S,12S,16R)-7,11-Dihydroxy-10-(but-3-en-1-yl)-3-(1-methyl-2-(2-pyridyl)ethenyl)-8,8,12,16-tetramethyl-4,17-dioxabicyclo[14.1.0]heptadecane-5,9-dione], the IC50 in the assay on NCl/ADR (setting [4]) came to 3.8 nM; in the assay on MCF-7 (setting [4]), 3.1 nM. Also, the “Selectivity = IC50-(NCl/ADR): IC50-(MCF-7)” value with NCl/ADR (setting [5]) stood at 1.2.

For the compound `C=CC[C@H]1C(=O)C(C)(C)[C@@H](O)CC(=O)O[C@H](/C(C)=C/c2csc(C)n2)C/C=C(/C)CCC[C@H](C)[C@@H]1O` [Example 9, (4S,7R,8S,9S,13Z,16S(E))-4,8-Dihydroxy-16-(1-methyl-2-(2-methylthiazol-4-yl)ethenyl)-1-oxa-5,5,9,13-tetramethyl-7-(prop-2-en-1-yl)-cyclohexadec-13-ene-2,6-dione], the IC50 in the assay with NCl/ADR (setting [3]) turned out to be 41 nM; in the assay with MCF-7 (setting [3]), 17 nM. Further, the “Selectivity = IC50-(NCl/ADR): IC50 (MCF-7)” value in the assay with NCl/ADR was 2.4.

For the compound `C=CC[C@H]1C(=O)C(C)(C)[C@@H](O)CC(=O)O[C@H](/C(C)=C/c2csc(C)n2)C[C@@H]2O[C@]2(C)CCC[C@H](C)[C@@H]1O` [Example 10A, (1S,3S(E),7S,10R,11S,12S,16R)-7,11-Dihydroxy-10-(prop-2-en-1-yl)-3-(1-methyl-2-(2-methylthiazol-4-yl)ethenyl)-8,8,12,16-tetramethyl-4,17-dioxabicyclo[14.1.0]heptadecane-5,9-dione], the values for the IC50 in the assay on NCl/ADR (setting [4]) and with MCF-7 (setting [4]) were 3.6 nM and 1.2 nM, respectively. For the same compound, the “Selectivity = IC50-(NCl/ADR): IC50-(MCF-7)” value in the assay with NCl/ADR (setting [5]) was found to be 3.0.

With `C=CC[C@H]1C(=O)C(C)(C)[C@@H](O)CC(=O)O[C@H](/C(C)=C/c2csc(C)n2)C[C@H]2O[C@]2(C)CCC[C@H](C)[C@@H]1O` [Example 12A or B, (1R,3S(E),7S,10R,11S,12S,16R)-7,11-Dihydroxy-10-(prop-2-en-1-yl)-3-(1-methyl-2-(2-methylthiazol-4-yl)ethenyl)-8,8,12,16-tetramethyl-4,17-dioxabicyclo[14.1.0]heptadecane-5,9-dione], the IC50 was 61 nM in the assay with NCl/ADR (setting [1]) and 40 nM with MCF-7 (setting [1]). Further, the “Selectivity = IC50-(NCl/ADR): IC50-(MCF-7)” value with NCl/ADR (setting [2]) was found to be 1.5.

On to `C#CC[C@H]1C(=O)C(C)(C)[C@@H](O)CC(=O)O[C@H](/C(C)=C/c2ccccn2)C/C=C(/C)CCC[C@H](C)[C@@H]1O` [Example 13, (4S,7R,8S,9S,13Z,16S(E))-4,8-Dihydroxy-16-(1-methyl-2-(2-pyridyl)ethenyl)-1-oxa-5,5,9,13-tetramethyl-7-(prop-2-in-1-yl)-cyclohexadec-13-ene-2,6-dione], for which, in the assay on MCF-7 (setting [3]), the half-maximal inhibitory concentration (IC50) is 34 nM.

For the compound `C=CC[C@H]1C(=O)C(C)(C)[C@@H](O)CC(=O)O[C@H](/C(C)=C/c2ccccn2)C/C=C(/C)CCC[C@H](C)[C@@H]1O` [Example 15, (4S,7R,8S,9S,13Z,16S(E))-4,8-Dihydroxy-16-(1-methyl-2-(2-pyridyl)ethenyl)-1-oxa-5,5,9,13-tetramethyl-7-(prop-2-en-1-yl)-cyclohexadec-13-ene-2,6-dione], the concentration for half-maximal inhibition (IC50) in the assay on MCF-7 (setting [3]) came out at 25 nM.

`C=CC[C@H]1C(=O)C(C)(C)[C@@H](O)CC(=O)O[C@H](c2ccc3oc(C)nc3c2)C/C=C(/C)CCC[C@H](C)[C@@H]1O` [Example 21, (4S,7R,8S,9S,13Z,16S(E))-4,8-Dihydroxy-16-(2-methyl-benzoxazol-5-yl)-1-oxa-5,5,9,13-tetramethyl-7-(prop-2-en-1-yl)-cyclohexadec-13-ene-2,6-dione] had an IC50 with MCF-7 (setting [3]) of 32 nM.

For the compound `C#CC[C@H]1C(=O)C(C)(C)[C@@H](O)CC(=O)O[C@H](/C(F)=C/c2csc(C)n2)C/C=C(/C)CCC[C@H](C)[C@@H]1O` [Example 23, (4S,7R,8S,9S,13Z,16S(Z))-4,8-Dihydroxy-16-(1-fluoro-2-(2-methylthiazol-4-yl)ethenyl)-7-(prop-2-in-1-yl)-1-oxa-5,5,9,13-tetramethyl-cyclohexadec-13-ene-2,6-dione], the 50% inhibitory concentration (IC50) in the assay with NCl/ADR (setting [3]) came out at 62 nM; with MCF-7 (setting [3]), 11 nM. For the same compound, the “Selectivity = IC50-(NCl/ADR): IC50 (MCF-7)” value in the assay on NCl/ADR stood at 5.6.

Consider `C#CC[C@H]1C(=O)C(C)(C)[C@@H](O)CC(=O)O[C@H](/C(F)=C/c2csc(C)n2)C[C@@H]2O[C@]2(C)CCC[C@H](C)[C@@H]1O` [Example 25, (1S,3S(Z),7S,10R,11S,12S,16R)-7,11-Dihydroxy-3-(1-fluoro-2-(2-methyl-4-thiazolyl)ethenyl)-10-(prop-2-in-1-yl)-8,8,12,16-tetramethyl-4,17-dioxabicyclo[14.1.0]heptadecane-5,9-dione], for which the IC50 in the assay on NCl/ADR (setting [4]) stood at 11 nM; with MCF-7 (setting [4]), 2.3 nM. Besides, the “Selectivity = IC50-(NCl/ADR): IC50-(MCF-7)” value with NCl/ADR (setting [5]) is reported as 4.8.

Consider `C#CC[C@H]1C(=O)C(C)(C)[C@@H](O)CC(=O)O[C@H](/C(F)=C/c2csc(C)n2)C[C@@H]2O[C@@]2(C)CCC[C@H](C)[C@@H]1O` [Example 26A or B, (1S,3S(Z),7S,10R,11S,12S,16S)-7,11-Dihydroxy-3-(1-fluoro-2-(2-methyl-4-thiazolyl)ethenyl)-10-(prop-2-in-1-yl)-8,8,12,16-tetramethyl-4,17-dioxabicyclo[14.1.0]heptadecane-5,9-dione], for which the figures for the 50% inhibitory concentration (IC50) in the assay with NCl/ADR (setting [1]) and in the assay on MCF-7 (setting [1]) were 60 nM and 18 nM, respectively. For the same compound, the “Selectivity = IC50-(NCl/ADR): IC50-(MCF-7)” value with NCl/ADR (setting [2]) was 3.3.

As to `C#CC[C@H]1C(=O)C(C)(C)[C@@H](O)CC(=O)O[C@H](/C(F)=C/c2coc(C)n2)C/C=C(/C)CCC[C@H](C)[C@@H]1O` [Example 27, (4S,7R,8S,9S,13Z,16S(Z))-4,8-Dihydroxy-16-(1-fluoro-2-(2-methyloxazol-4-yl)ethenyl)-7-(prop-2-in-1-yl)-1-oxa-5,5,9,13-tetramethyl-cyclohexadec-13-ene-2,6-dione], the half-maximal inhibitory concentration (IC50) came out at 41 nM with NCl/ADR (setting [3]) and 25 nM in the assay with MCF-7 (setting [3]). Also, the “Selectivity = IC50-(NCl/ADR): IC50 (MCF-7)” value in the assay with NCl/ADR is recorded as 1.6.

As for `CC(=O)O[C@H]1C(=O)[C@@]2(C)[C@H]([C@H](OC(=O)c3ccccc3)[C@]3(O)C[C@H](OC(=O)[C@H](O)[C@@H](NC(=O)c4ccccc4)c4ccccc4)C(C)=C1C3(C)C)[C@]1(OC(C)=O)CO[C@@H]1C[C@@H]2O` [Taxol, reference compound], the IC50 with NCl/ADR (Homo sapiens, Table 1, epothilone derivatives with 13Z-unsaturated) is above 100 nM; in the assay on NCl/ADR (setting [4]), above 100 nM; in the assay on NCl/ADR (setting [1]), above 100 nM; in the assay on MCF-7 (Homo sapiens, MCF7, Table 1, epothilone derivatives with 13Z-unsaturated) it was 3.5 nM. In addition, in the assay on NCl/ADR, the “Selectivity = IC50-(NCl/ADR): IC50 (MCF-7)” value is above 28.6. For the same compound, the “Selectivity = IC50-(NCl/ADR): IC50-(MCF-7)” value in the assay with NCl/ADR (setting [5]) and in the assay with NCl/ADR (setting [2]) was above 29 in each case. Further, the “action on the multi-drug-resistant cell line NCl/ADR” value with NCl/ADR (in words, in comparison to Taxol) was “not exhibited”.
